Test results from patent publication EP3009138B1, “MANGIFERA EXTRACT FOR THE MANAGEMENT OF OBESITY AND/OR WEIGHT” (Kodimule, Shyam Prasad, priority 2014, dated 2016).
Marks after values point to notes of the source that are not given here.

Tests used:
[1] = target: T1, Porcine Pancreatic Lipase (Sus scrofa, UniProt P00591); assay: Anti-lipase assay (triolein emulsion); type: biochemical; settings: Sample Concentration: 1.2 mg/ml; 37 °C, 30 min
T1 sequence (P00591 1-450): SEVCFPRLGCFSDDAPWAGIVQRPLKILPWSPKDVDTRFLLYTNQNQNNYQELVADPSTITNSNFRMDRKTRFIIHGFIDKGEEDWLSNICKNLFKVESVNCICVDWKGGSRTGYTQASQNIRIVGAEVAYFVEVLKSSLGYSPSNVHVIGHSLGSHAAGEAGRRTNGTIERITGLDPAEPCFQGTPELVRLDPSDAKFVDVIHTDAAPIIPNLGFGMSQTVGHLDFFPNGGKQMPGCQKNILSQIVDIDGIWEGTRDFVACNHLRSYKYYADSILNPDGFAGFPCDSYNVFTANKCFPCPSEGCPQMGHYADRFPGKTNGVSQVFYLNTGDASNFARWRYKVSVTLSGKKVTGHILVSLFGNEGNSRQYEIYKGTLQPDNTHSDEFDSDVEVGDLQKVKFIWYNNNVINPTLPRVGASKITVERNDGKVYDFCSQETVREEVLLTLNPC
Description: A suspension containing 1% (V/V) of triolein and 1% (V/V) of tween 40 in 0.1M phosphate buffer (pH-8) was prepared and emulsified. The assay was initiated by adding 800µl of the Triolein emulsion to 200µl of Porcine Pancreatic Lipase (0.5 g Pancreatic Lipase in 15 ml of 0.1 M phosphate buffer at pH-8) and 200 µl of the HC extract (100 µg/ml concentration). The resultant mixture was mixed and the absorbance was measured immediately at 450 nm (T^0). The mixtures were then incubated at 37 °C for 30 min and the absorption was measured at 450 nm (T^30). Inhibition % = {A(cont)−A(test) × 100; A(cont)} [formula] where: • A(cont) - is the absorbance of the control (TC^0-TC^30) • A(test) - is the absorbance of the sample test /standard (T^0-T^30) (the HC, mangiferin and quercetin)

high fat diet fed rats = assay: Anti-obesity activity in high fat diet fed rats; type: in vivo, Male Wistar rats; settings: male rats, Orlistat 30 mg/kg (Group III)
Description: Objective: The objective was to investigate the effect of the HC against high fat diet fed rats. Animals: Male Wistar rats (160 to 200 g); No of animals: 36; Housing: 3/ cage, 12 hrs light/dark cycle; Temperature: 25±2°c; Model & Composition of the Diet: High fat diet in rats: 25% Lard, 5% Soyabean oil; 5% starch; 65% Normal commercial available rat feed; Groups: Male Wistar rats were divided into six groups with six animals in each group [table]

[2] = Hydrogen peroxide (H2O2) scavenging activity; type: biochemical
Description: Hydrogen peroxide scavenging activity of the HC was estimated in this study where initially, HC solutions were prepared at different concentrations in distilled water and the resultant solutions were mixed in 0.6 ml of 40 mM H2O2 solution prepared in phosphate buffer (0.1 M pH 7.4) and incubated for 10 min. The absorbance was measured at 230 nm against a blank solution containing H2O2. Similar procedure was repeated for HC, Mangiferin and Quercetin. The amount of hydrogen peroxide radical inhibited was calculated using the following equation. The result is expressed as % H2O2 radical scavenging activity. H2 O2 radical scavenging activity = {(Abs control−Abs sample) × 100; (Abs control)} [formula] where: • Abs control - Absorbance of H2O2 radical • Abs sample - Absorbance of sample extract/ standard (the HC, mangiferin and quercetin)

[3] = Lipid peroxidation inhibitory assay (TBARS); type: biochemical; settings: Sample Concentration: 100-500µ g/ml
Description: A modified Thiobarbituric acid reactive species (TBARS) assay (Ohkowa et al., 1979) is used to measure lipid peroxidation formed using egg yolk homogenate as lipid rich media (Ruberto et al., 2000).
Take 0.5ml of egg homogenate (10%in distilled water) and 0.1 ml of test sample in the concentration range 100-500µ g/ml in a test tube and volume made up to 1 ml by adding distilled water. Finally add 0.05 ml ferrous sulphate (0.07M) to the above mixture and incubate for 30 min to induce the lipid peroxidation. Thereafter add 1.5 ml of 20% acetic acid (pH 3.5) and 1.5 ml of (0.8%in 1.1% SDS) TBA and 0.05 ml (20%) TCA then heated in boiling water bath for 60 min. After cooling 5 ml of butanol will be added to all the test tubes and centrifuged at 3000 rpm for 10 min. Measure the absorbance of the organic upper layer at 532 nm. The percentage inhibition of lipid peroxidation calculated from the formula, % Inhibition = ((Abcontrol−Abtest sample)*100)/(Abcontrol) [formula] where: • Ab (cont) - is the absorbance of the control • Ab (test sample) - is the absorbance of the test sample /standard Table 12 Lipid peroxidation inhibitory assay test results

[4] = Superoxide Dismutase (SOD) activity / superoxide anion scavenging (NBT/NADH/PMS); type: biochemical; settings: 100 µg/ml (method)
Description: The superoxide anion scavenging activity of the HC was measured in this test. 1 ml (156 µM) of Nitro blue tetrazolium (NBT), 1 ml (468 µM) of nicotinamide adenine dinucleotide (NADH) and 3 ml of the HC at 100 µg/ml concentration were admixed in phosphate buffer (pH 7.4). The reaction was started by adding 100 µl of phenazine methosulfate (PMS) (0.18mg/ml) and the mixture was incubated at 25°C for 5 min followed by measuring the absorbance at 560 nm. Similar solutions were prepared for quercetin and mangiferin and the percentage of inhibition was calculated by using the formula provided herein-below; the result was expressed as % superoxide dismutase scavenging activity. % superoxide dismutase inhibition = {(Abs control−Abs sample) × 100; Abs control} [formula] where: • Abs control - Absorbance of control • Abs sample - Absorbance of sample extract/ standard (the HC, mangiferin and quercetin)

## O=c1c2cc(O)c(O)cc2oc2cc(O)c([C@@H]3O[C@H](CO)[C@@H](O)[C@H](O)[C@H]3O)c(O)c12 [Mangiferin 98%, Mangiferin]
[1]
  inhibition at 1200 µg/mL: 41.8%

## CCCCCCCCCCC[C@@H](C[C@@H]1OC(=O)[C@H]1CCCCCC)OC(=O)[C@H](CC(C)C)NC=O [Orlistat]
[1]
  inhibition at 1200 µg/mL: 75.3%
High fat diet fed rats; baseline, in g (unit assumed)
  Initial weight: 182.00±0.96
High fat diet fed rats
  Atherogenic Index: 1.39±0.15***^b
  Average food intake: 13.45±0.28^nsb g/rat
  BAT: 0.28± 0.01^nsb
  Difference in body weight gain: 79.82±2.58***^b
  Epididymal fat pad Left: 0.52± 0.03^nsb
  Epididymal fat pad Right: 0.55± 0.02^nsb
  Fecal fatty acid estimation: 4.1±0.26*^b
  Insulin: 0.15±0.005^nsb mU/L
  Liver (organ weight): 2.8±0.08 ***^b
  Liver triglycerides: 87.77±2.28*^b
  Mesenteric fat: 1.02±0.07 ^nsb
  Perirenal fat pad tissue Left: 0.77± 0.08*^b
  Perirenal fat pad tissue Right: 0.77±0.08*^b
  serum Glucose: 92.00±2.89**^b mg/dL
High fat diet fed rats; in g (unit assumed)
  Final weight: 261.80±2.53
High fat diet fed rats; serum
  HDL-c: 21.72±1.22**^b mg/dL
  LDL-c: 13.20±1.71**^b mg/dL
  Total cholesterol: 50.91±0.62***^b mg/dL
  Triglyceride: 79.96±1.13***^b mg/dL

## O=c1c(O)c(-c2ccc(O)c(O)c2)oc2cc(O)cc(O)c12 [Quercetin (Standard), Quercetin]
[2]; 10 µg/ml
  H2O2 scavenging activity: 5.6%
[2]; 20 µg/ml
  H2O2 scavenging activity: 14.55%
[2]; 30 µg/ml
  H2O2 scavenging activity: 18.86%
[2]; 40 µg/ml
  H2O2 scavenging activity: 33.96%
[3]
  Lipid peroxidation inhibitory assay % inhibition: 53.44%
[4]
  SOD activity % Inhibition: 51.03%
